Experimental data taken from PMC9968088, “Identification and Characterization of Three New Antimicrobial Peptides from the Marine Mollusk Nerita versicolor (Gmelin, 1791)” (International Journal of Molecular Sciences, 2023).
Ends that are not written are not given here.

Tests used:
Details in all cases: 24 h
C. parapsilosis biofilm = assay type: cell-based, Candida parapsilosis
Method: (§1) Biofilms were basically formed and analyzed as described previously [31, 32, 33]. In brief, 2.5 × 10^3 yeast cells were seeded in 200 µL RPMI-1640 medium supplemented with L-glutamine in flat-bottomed, 96-well polystyrene microtiter plates (Sarstedt AG & Co. KG, Nümbrecht, Germany) and incubated at 37 °C without agitation for 24 h. The effect of the peptides on the biofilm formation was tested at different concentrations. […] Planktonic cells were removed with the supernatant, and the mature biofilms were washed twice with 200 µL water. Subsequently, the biofilms were stained with 200 µL of a 0.1% (w/v) crystal violet solution for 15 min. The supernatant was removed, and the biofilms were washed twice with 200 µL water to eliminate excess crystal violet. The stained biofilms were air dried for 24 h at 25 °C and finally destained using 200 µL of 30% acetic acid (15 min, 25 °C). The supernatant was transferred to a fresh 96-well plate, and the absorbance at 560 nm was measured using a Tecan infinite M200 microplate reader to quantify the biofilm biomass. The curve was fitted with a nonlinear regression with the dose-response nonlinear Hill equation.

C. auris biofilm = assay type: cell-based, Candida auris
Method: as §1

C. auris = assay type: cell-based, Candida auris
Method: (§2) The antifungal activity was determined according to the “Clinical and Laboratory Standards Institute” guidelines M27-A3 broth microdilution assay with modifications (turbidimetric detection) [29, 31]. Based on the cell density measurements, the minimal inhibitory concentration (MIC) was derived from a Lambert–Pearson plot [32].

C. albicans = assay type: cell-based, Candida albicans
Method: as §2

Pseudomonas aeruginosa = assay type: cell-based
Method: The OD 600 nm of an overnight culture of Pseudomonas aeruginosa was determined and adjusted to 0.1 in Mueller–Hinton broth and, afterwards, diluted 1:4. […] After a 24 h incubation at 37 °C and a 5% CO2 atmosphere, OD 600 nm was determined using a Tecan microplate reader M infinite 200. All tests were performed in triplicate.

C. albicans biofilm = assay type: cell-based, Candida albicans
Method: as §1

C. parapsilosis = assay type: cell-based, Candida parapsilosis
Method: as §2

Substance: KKKPTKK [Nv-p3]
- Antibiofilm Activity IC50 (C. parapsilosis biofilm): 84.4 µg/mL
- Antibiofilm Activity IC50 (C. auris biofilm): 57.5 µg/mL
- Antifungal Activity MIC (C. auris): ˃100 µg/mL
- Antifungal Activity MIC (C. albicans): ˃100 µg/mL
- MIC (Pseudomonas aeruginosa): >100 µg/mL
- Antibiofilm Activity IC50 (C. albicans biofilm): 57.5 µg/mL
- Antifungal Activity MIC (C. parapsilosis): ˃100 µg/mL
